According to patent US12195482B1 (Arcus Biosciences, Inc., priority 2022, dated 2025):

Assays:
[1] = target: T1, recombinant human MER (Homo sapiens, UniProt Q12866); experiment: Biochemical potency, HTRF KinEASE-TK kinase assay; details: 1 nM MER, 700 μM ATP
T1 construct: purchased Invitrogen
T1 sequence (Q12866 21-999): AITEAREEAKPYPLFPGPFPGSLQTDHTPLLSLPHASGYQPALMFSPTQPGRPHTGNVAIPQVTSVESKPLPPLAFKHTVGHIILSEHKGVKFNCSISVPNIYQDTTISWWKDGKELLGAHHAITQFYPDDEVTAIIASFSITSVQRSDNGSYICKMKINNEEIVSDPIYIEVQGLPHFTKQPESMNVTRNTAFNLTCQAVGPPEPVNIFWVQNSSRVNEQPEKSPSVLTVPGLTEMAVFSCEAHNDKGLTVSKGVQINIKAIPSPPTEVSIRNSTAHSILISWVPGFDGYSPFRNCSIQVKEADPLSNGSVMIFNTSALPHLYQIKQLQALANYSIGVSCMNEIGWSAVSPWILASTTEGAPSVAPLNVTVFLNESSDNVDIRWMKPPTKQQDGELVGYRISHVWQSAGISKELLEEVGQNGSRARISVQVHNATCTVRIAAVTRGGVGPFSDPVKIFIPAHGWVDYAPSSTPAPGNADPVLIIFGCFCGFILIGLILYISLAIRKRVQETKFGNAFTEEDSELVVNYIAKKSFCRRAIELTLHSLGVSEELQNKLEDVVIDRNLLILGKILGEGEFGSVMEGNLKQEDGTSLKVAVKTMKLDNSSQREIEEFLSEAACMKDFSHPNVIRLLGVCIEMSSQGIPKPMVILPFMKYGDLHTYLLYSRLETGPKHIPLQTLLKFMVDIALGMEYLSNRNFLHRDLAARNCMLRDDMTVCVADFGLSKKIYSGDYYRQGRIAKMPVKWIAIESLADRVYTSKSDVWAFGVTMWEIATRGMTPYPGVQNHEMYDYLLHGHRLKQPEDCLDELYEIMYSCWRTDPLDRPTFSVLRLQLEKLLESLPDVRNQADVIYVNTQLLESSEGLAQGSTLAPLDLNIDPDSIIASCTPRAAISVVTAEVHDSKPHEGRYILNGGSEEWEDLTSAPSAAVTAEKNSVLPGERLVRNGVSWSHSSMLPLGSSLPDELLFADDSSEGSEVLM
Outline: (§1)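 Enzyme (AXL 5 nM; TYRO3 or MER 1 nM final) was preincubated with compound for 1 h at RT, then reacted for 2 h at RT with 800 nM biotinylated TK substrate and 700 µM ATP in HEPES pH 7.4, MgCl2, DTT, BSA, 1% DMSO. Percent activity came from the HTRF 665/620 ratio.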

[2] = target: T2, recombinant human TYRO3 (Homo sapiens, UniProt Q06418); experiment: Biochemical potency, HTRF KinEASE-TK kinase assay; details: 1 nM TYRO3, 700 μM ATP
T2 construct: purchased Invitrogen
T2 sequence (Q06418 41-890): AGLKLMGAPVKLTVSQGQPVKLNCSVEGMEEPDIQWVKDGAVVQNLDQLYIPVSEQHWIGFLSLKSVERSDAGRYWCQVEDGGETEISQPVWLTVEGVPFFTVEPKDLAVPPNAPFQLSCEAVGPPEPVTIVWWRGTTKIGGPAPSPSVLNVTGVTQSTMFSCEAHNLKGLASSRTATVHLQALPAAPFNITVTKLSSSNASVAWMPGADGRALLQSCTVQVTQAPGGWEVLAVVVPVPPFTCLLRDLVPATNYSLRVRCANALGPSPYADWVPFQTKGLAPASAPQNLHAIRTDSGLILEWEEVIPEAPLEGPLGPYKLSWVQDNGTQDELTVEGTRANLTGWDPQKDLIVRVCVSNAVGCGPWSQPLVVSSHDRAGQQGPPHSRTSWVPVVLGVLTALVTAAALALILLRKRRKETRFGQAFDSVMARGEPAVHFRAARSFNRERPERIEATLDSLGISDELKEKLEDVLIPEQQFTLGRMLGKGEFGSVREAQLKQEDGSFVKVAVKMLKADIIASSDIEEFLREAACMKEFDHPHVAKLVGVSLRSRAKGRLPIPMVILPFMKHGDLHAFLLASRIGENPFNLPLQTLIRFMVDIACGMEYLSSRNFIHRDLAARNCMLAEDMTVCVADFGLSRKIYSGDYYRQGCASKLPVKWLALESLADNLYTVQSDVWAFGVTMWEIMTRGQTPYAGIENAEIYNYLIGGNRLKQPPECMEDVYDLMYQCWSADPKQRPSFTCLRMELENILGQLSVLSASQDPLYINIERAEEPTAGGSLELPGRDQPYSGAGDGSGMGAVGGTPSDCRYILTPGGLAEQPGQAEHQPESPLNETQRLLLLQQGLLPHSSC
Outline: as §1

Compound	IC50 [1]	IC50 [2]
COC[C@H]1CCN([C@H]2CCc3ccc(-c4cnc5[nH]nc(-c6ccc(-c7ncccc7C)cc6)c5c4)cc3CC2)C1 [Example 132, 2-(4-{5-[(7S)-7-[(3S)-3-(Methoxymethyl)pyrrolidin-1-yl]-6,7,8,9-tetrahydro-5H-benzo[7]annulen-2-yl]-1H-pyrazolo[3,4-b]pyridin-3-yl}phenyl)-3-methylpyridine]	< 100 nM	< 100 nM
Cc1cccnc1-c1ccc(-c2c[nH]c3ncc(-c4ccc5c(c4)CC[C@@H](N4C[C@@H]6C[C@H]4CO6)CC5)cc23)cc1 [Example 187, (4S)-5-[(7S)-2-{3-[4-(3-Methylpyridin-2-yl)phenyl]-1H-pyrrolo[2,3-b]pyridin-5-yl}-6,7,8,9-tetrahydro-5H-benzo[7]annulen-7-yl]-2-oxa-5-azabicyclo[2.2.1]heptane]	100 to 1000 nM	< 100 nM
Cc1ccccc1-c1ccc(-c2n[nH]c3ncc(-c4ccc5c(c4)CC[C@@H](N4C6COCC4C6)CC5)cc23)nc1 [Example 98, 6-[(7S)-2-{3-[5-(2-Methylphenyl)pyridin-2-yl]-1H-pyrazolo[3,4-b]pyridin-5-yl}-6,7,8,9-tetrahydro-5H-benzo[7]annulen-7-yl]-3-oxa-6-azabicyclo[3.1.1]heptane]	> 1000 nM	> 1000 nM
Cc1cccc(-c2ccc(-c3n[nH]c4ncc(-c5ccc6c(c5)CC[C@@H](N5C7COCC5C7)CC6)cc34)cc2)n1 [Example 116, 6-[(7S)-2-{3-[4-(6-Methylpyridin-2-yl)phenyl]-1H-pyrazolo[3,4-b]pyridin-5-yl}-6,7,8,9-tetrahydro-5H-benzo[7]annulen-7-yl]-3-oxa-6-azabicyclo[3.1.1]heptane]	100 to 1000 nM	100 to 1000 nM
CN(C)C(=O)c1cccnc1-c1ccc(-c2c[nH]c3ncc(-c4ccc5c(c4)CC[C@@H](N4C6COCC4C6)CC5)cc23)cc1 [Example 165, N,N-Dimethyl-2-(4-{5-[(7S)-7-{3-oxa-6-azabicyclo[3.1.1]heptan-6-yl}-6,7,8,9-tetrahydro-5H-benzo[7]annulen-2-yl]-1H-pyrrolo[2,3-b]pyridin-3-yl}phenyl)pyridine-3-carboxamide]	100 to 1000 nM	< 100 nM
O=C1CCCCN1c1cccnc1-c1ccc(-c2n[nH]c3ncc(-c4ccc5c(c4)CC[C@@H](N4C6COCC4C6)CC5)cc23)cc1 [Example 127, 1-[2-(4-{5-[(7S)-7-{3-Oxa-6-azabicyclo[3.1.1]heptan-6-yl}-6,7,8,9-tetrahydro-5H-benzo[7]annulen-2-yl]-1H-pyrazolo[3,4-b]pyridin-3-yl}phenyl)pyridin-3-yl]piperidin-2-one]	100 to 1000 nM	< 100 nM
CN(C(=O)C1CC1)c1cccnc1-c1ccc(-c2n[nH]c3ncc(-c4ccc5c(c4)CC[C@@H](N4C6COCC4C6)CC5)cc23)cc1 [Example 128, N-Methyl-N-[2-(4-{5-[(7S)-7-{3-oxa-6-azabicyclo[3.1.1]heptan-6-yl}-6,7,8,9-tetrahydro-5H-benzo[7]annulen-2-yl]-1H-pyrazolo[3,4-b]pyridin-3-yl}phenyl)pyridin-3-yl]cyclopropanecarboxamide]	100 to 1000 nM	< 100 nM
Cc1cnc(-c2ccc(-c3n[nH]c4ncc(-c5ccc6c(c5)CC[C@@H](N5C7COCC5C7)CC6)cc34)cc2)c(C)c1 [Example 119, 6-[(7S)-2-{3-[4-(3,5-Dimethylpyridin-2-yl)phenyl]-1H-pyrazolo[3,4-b]pyridin-5-yl}-6,7,8,9-tetrahydro-5H-benzo[7]annulen-7-yl]-3-oxa-6-azabicyclo[3.1.1]heptane]	< 100 nM	< 100 nM
CCc1cccnc1-c1ccc(-c2c[nH]c3ncc(-c4ccc5c(c4)CC[C@@H](N4C6COCC4C6)CC5)cc23)cc1 [Example 183, 6-[(7S)-2-{3-[4-(3-Ethylpyridin-2-yl)phenyl]-1H-pyrrolo[2,3-b]pyridin-5-yl}-6,7,8,9-tetrahydro-5H-benzo[7]annulen-7-yl]-3-oxa-6-azabicyclo[3.1.1]heptane]	100 to 1000 nM	< 100 nM
Cc1cccnc1-c1ccc(-c2c[nH]c3ncc(-c4ccc5c(c4)CC[C@@H](N[C@H]4CCCOC4)CC5)cc23)cc1 [Example 186, (3S)—N-[(7S)-2-{3-[4-(3-Methylpyridin-2-yl)phenyl]-1H-pyrrolo[2,3-b]pyridin-5-yl}-6,7,8,9-tetrahydro-5H-benzo[7]annulen-7-yl]oxan-3-amine]	< 100 nM	< 100 nM
Cc1cc(-c2ncccc2C)ccc1-c1n[nH]c2ncc(-c3ccc4c(c3)CC[C@@H](N3C5COCC3C5)CC4)cc12 [Example 30, 6-[(7S)-3-[3-[2-Methyl-4-(3-methylpyridin-2-yl)phenyl]-1H-pyrazolo[3,4-b]pyridin-5-yl]-6,7,8,9-tetrahydro-5H-benzo[7]annulen-7-yl]-3-oxa-6-azabicyclo[3.1.1]heptane]	> 1000 nM	< 100 nM
Cc1cccnc1-c1ccc(-c2c[nH]c3ncc(-c4ccc5c(c4)CC[C@@](C)(N4CCC[C@H]4C)CC5)cc23)cc1 [Example 172, 3-Methyl-2-(4-{5-[(7S)-7-methyl-7-[(2R)-2-methylpyrrolidin-1-yl]-6,7,8,9-tetrahydro-5H-benzo[7]annulen-2-yl]-1H-pyrrolo[2,3-b]pyridin-3-yl}phenyl)pyridine]	< 100 nM	< 100 nM
Cc1cc(-c2n[nH]c3ncc(-c4ccc5c(c4)CC[C@@H](N4C6COCC4C6)CC5)cc23)ccc1-c1ccccn1 [Example 159, 6-[(7S)-2-{3-[3-Methyl-4-(pyridin-2-yl)phenyl]-2H-pyrazolo[3,4-b]pyridin-5-yl}-6,7,8,9-tetrahydro-5H-benzo[7]annulen-7-yl]-3-oxa-6-azabicyclo[3.1.1]heptane]	100 to 1000 nM	100 to 1000 nM
c1cncc(-c2ccc(-c3c[nH]c4ncc(-c5ccc6c(c5)CC[C@@H](N5C7COCC5C7)CC6)cc34)cc2)c1 [Example 158, 6-[(7S)-2-{3-[4-(Pyridin-3-yl)phenyl]-1H-pyrrolo[2,3-b]pyridin-5-yl}-6,7,8,9-tetrahydro-5H-benzo[7]annulen-7-yl]-3-oxa-6-azabicyclo[3.1.1]heptane]	> 1000 nM	> 1000 nM
c1ccc(-c2ccc(-c3n[nH]c4ncc(-c5ccc6c(c5)CC[C@@H](N5C7COCC5C7)CC6)cc34)cc2)nc1 [Example 154, 6-[(7S)-2-{3-[4-(Pyridin-2-yl)phenyl]-2H-pyrazolo[3,4-b]pyridin-5-yl}-6,7,8,9-tetrahydro-5H-benzo[7]annulen-7-yl]-3-oxa-6-azabicyclo[3.1.1]heptane]	100 to 1000 nM	100 to 1000 nM
C[C@@H]1CCCN1[C@@]1(C)CCc2ccc(-c3cnc4[nH]cc(-c5ccc(-c6ccccn6)cc5)c4c3)cc2CC1 [Example 156, 2-(4-{5-[(7S)-7-Methyl-7-[(2R)-2-methylpyrrolidin-1-yl]-6,7,8,9-tetrahydro-5H-benzo[7]annulen-2-yl]-1H-pyrrolo[2,3-b]pyridin-3-yl}phenyl)pyridine]	100 to 1000 nM	100 to 1000 nM
